Molecular target: NMDA receptor glycine B site (Rattus norvegicus, UniProt P35439)
Experiment: Calcium FLIPR studies, rat cortical neurons (NMDA/D-Serine induced intracellular calcium)
Format: cell-based
Set-up: Primary neurons are prepared from cortices of embryonal rats at day 17 of pregnancy; endogenous in cells; host or cells: primary rat cortical neurons (E17, 11-13 DIV)
Details: rat cortical neurons; stimulation with 30 μM NMDA and 1 μM D-Serine; antagonist pre-incubated 10 min; read-out: NMDA-FLIPR-rCTX-NAM - IC50
Summary of the method: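 Embryonic (E17) Sprague-Dawley rat cortical neurons, 11-13 days in vitro, loaded with Calcium-4 dye (pH 7.3) and pre-incubated with antagonist (5 concentrations) for 10 min at room temperature, then stimulated with 30 μM NMDA plus 1 μM D-Serine. FLIPR AUC as percent of agonist control; IC50 by four-parameter logistic fit.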

Row | IC50 | Structure (SMILES)
1 | 1.7 µM | O=C(COc1cc(C(=O)O)cc2cc(Cl)cc(Cl)c12)Nc1ccccc1OCC(=O)N1CCOCC1 [Example 54, 5,7-Dichloro-4-{[2-(2-morpholin-4-yl-2-oxo-ethoxy)-phenylcarbamoyl]-methoxy}-naphthalene-2-carboxylic acid]
2 | 1.56 µM | O=C(COc1cc(C(=O)O)cc2cc(Cl)cc(Cl)c12)Nc1ccccc1OCc1nnn[nH]1 [Example 60, 5,7-Dichloro-4-{[2-(1H-tetrazol-5-ylmethoxy)-phenylcarbamoyl]-methoxy}-naphthalene-2-carboxylic acid]
3 | 0.88 µM | O=C(O)COc1ccccc1CNC(=O)COc1cc(C(=O)O)cc2cc(Cl)cc(Cl)c12 [Example 59, 4-[(2-Carboxymethoxy-benzylcarbamoyl)-methoxy]-5,7-dichloro-naphthalene-2-carboxylic acid]
4 | 1.96 µM | O=C(O)Cc1cccc(NC(=O)COc2cc(C(=O)O)cc3cc(Cl)cc(Cl)c23)c1 [Example 13, 4-[(3-Carboxymethylphenylcarbamoyl)-methoxy]-5,7-dichloronaphthalene-2-carboxylic acid]
5 | 7.33 µM | CN(C(=O)COc1cc(C(=O)O)cc2cc(Cl)cc(Cl)c12)c1ccc(C(=O)O)cc1 [Example 14, 4-{[(4-Carboxy-phenyl)-methylcarbamoyl]-methoxy}-5,7-dichloronaphthalene-2-carboxylic acid]
6 | 9.56 µM | O=C(COc1cc(C(=O)O)cc2cc(Cl)cc(Cl)c12)NCc1ccccc1 [Example 18, 4-(Benzylcarbamoylmethoxy)-5,7-dichloro-naphthalene-2-carboxylic acid]
7 | 4.01 µM | O=C(O)Cc1ccc(NC(=O)COc2cc(C(=O)O)cc3cc(Cl)cc(Cl)c23)cc1 [Example 7, 4-[(4-Carboxymethylphenylcarbamoyl)-methoxy]-5,7-dichloronaphthalene-2-carboxylic acid]
8 | 2.68 µM | O=C(O)Cc1ccccc1NC(=O)COc1cc(C(=O)O)cc2cc(Cl)cc(Cl)c12 [Example 15, 4-[(2-Carboxymethylphenylcarbamoyl)-methoxy]-5,7-dichloronaphthalene-2-carboxylic acid]
9 | 5.46 µM | COCC(Oc1cc(C(=O)O)cc2cc(Cl)cc(Cl)c12)C(=O)Nc1ccccc1OC (centres unmarked) [Example 74, 5,7-Dichloro-4-[2-methoxy-1-(2-methoxy-phenylcarbamoyl)-ethoxy]-naphthalene-2-carboxylic acid]
10 | 3.27 µM | O=C(COc1cc(C(=O)O)cc2cc(Cl)cc(Cl)c12)Nc1ccccc1C(=O)O [Example 3, 4-[(2-Carboxy-phenylcarbamoyl)-methoxy]-5,7-dichloro-naphthalene-2-carboxylic acid]
11 | 4.13 µM | O=C(O)c1cc(OCC(=O)N2CCOc3c(CO)cccc32)c2c(Cl)cc(Cl)cc2c1 [Example 78, 5,7-Dichloro-4-[2-(8-hydroxymethyl-2,3-dihydro-benzo[1,4]oxazin-4-yl)-2-oxo-ethoxy]-naphthalene-2-carboxylic acid]
12 | 0.211 µM | NCc1ccc(NC(=O)COc2cc(C(=O)O)cc3cc(Cl)cc(Cl)c23)c(OCC(=O)O)c1 [Example 34, 4-[(4-Aminomethyl-2-carboxymethoxyphenylcarbamoyl)-methoxy]-5,7-dichloronaphthalene-2-carboxylic acid]
13 | 6.2 µM | O=C(O)COc1cc(C(=O)O)cc2cc(Cl)cc(Cl)c12 [Example 1, 4-Carboxymethoxy-5,7-dichloronaphthalene-2-carboxylic acid]
14 | 0.105 µM | O=C(O)COc1ccccc1NC(=O)COc1cc(C(=O)O)cc2cc(Cl)cc(Cl)c12 [Example 42, 4-[(2-Carboxymethoxyphenylcarbamoyl)-methoxy]-5,7-dichloronaphthalene-2-carboxylic acid]
15 | 1.22 µM | CN(C(=O)COc1cc(C(=O)O)cc2cc(Cl)cc(Cl)c12)c1ccccc1C(=O)O [Example 20, 4-{[(2-Carboxyphenyl)-methylcarbamoyl]-methoxy}-5,7-dichloronaphthalene-2-carboxylic acid]
16 | 7.41 µM | O=C(O)c1cc(OCC(=O)N2CCCc3ccccc32)c2c(Cl)cc(Cl)cc2c1 [Example 50, 5,7-Dichloro-4-[2-(3,4-dihydro-2H-quinolin-1-yl)-2-oxo-ethoxy]-naphthalene-2-carboxylic acid]
17 | 7.08 µM | O=C(COc1cc(C(=O)O)cc2cc(Cl)cc(Cl)c12)Nc1ccccc1CO [Example 5, 5,7-Dichloro-4-[(2-hydroxymethylphenylcarbamoyl)-methoxy]-naphthalene-2-carboxylic acid]

— patent publication US20120220577A1, “GLYCINE B ANTAGONISTS” (Merz Pharma GmbH & Co KgaA, priority 2009, published 2012)
